Laboratory results as given in patent US12396987B2, “Pharmaceutical composition with excellent storage stability” (ISHIHARA SANGYO KAISHA, LTD., priority 2018, dated 2025).
“Also recorded” adds a separate entry of the source. Where a name gives a salt, the structure may show the parent alone.

Legend:
[1] = Forced decomposition test of compound 1 (heat, acid, base, oxidation, light; HPLC-PDA); assay type: physicochemical
Procedure: A forced decomposition test of the compound 1 was performed under stress conditions of heat, acid, base, oxidation and light. A compound 1-containing solution was stored under the conditions shown in Table 4 below, and then the concentrations of the compound 1 and the decomposition products in the solution were measured using a high performance liquid chromatography-photodiode array detector (HPLC-PDA system). An incubator was used for heating, and a light resistance tester was used for irradiation with pseudo-sunlight in a photodecomposition test. The content of the compound 1 in the compound 1-containing solution produced was measured by the HPLC-PDA system, and the value thereof was regarded as the initial content.
The content of D1 and D3 in the solution was represented by the proportion (% by area) of the peak area of each compound to the total peak area of HPLC analysis of the composition obtained after the decomposition test. Furthermore, the residual rate (% by mass) of the compound 1 was calculated by dividing the content after storage by the initial content using the absolute calibration method.
(§1) Measurement of the residual rate of the compound 1 and the content of the decomposition products in the following Examples 3 to 9 was performed under the following conditions: • Analyzer: HPLC-PDA system: CBM-20Avp system controller, SIC-20ADvp autosampler, LC-20ADvp feed pump, DGU-20A degasser, CTO-20Avp column oven, SPD-M10Avp photodiode array detector, manufactured by Shimadzu Corporation • Column: Kinetex® Biphenyl […] (50×4.6 mm), manufactured by Shimadzu Corporation
A compound 1 was metered, and Milli-Q water was added so that the compound 1 could be solubilized, thus obtaining an aqueous solution of the compound 1 (250 μM) so that the concentration of the compound 1 became 250 μM.
The aqueous solution of the compound 1 thus obtained (250 μM) was heated at 60° C., followed by measurement using the HPLC-PDA system.
The aqueous solution of the compound 1 obtained in Example 3 (250 μM) was heated under acid (0.1N HCl) conditions, followed by measurement of the decomposition products using the HPLC-PDA system. […] Addition of an acid decreased the production of D1 and promoted the production of D3.
The aqueous solution of the compound 1 obtained in Example 3 (250 μM) was heated under base (0.1N NaOH) conditions, followed by measurement of the decomposition products using the HPLC-PDA system. […] Addition of a base promoted the production of D1. Other peaks (0.11% by area) were observed.
The aqueous solution of the compound 1 obtained in Example 3 (250 μM) was stored under conditions of ordinary temperature and hydrogen peroxide (3 v/v %), followed by measurement of the decomposition products using the HPLC-PDA system.
The aqueous solution of the compound 1 obtained in Example 3 (250 μM) was irradiated with pseudo-sunlight (250 W/m^2, 2 hours), followed by measurement of the decomposition products using the HPLC-PDA system. […] Therefore, it was confirmed that the aqueous solution of the compound 1 was photostable.

[2] = Pharmacokinetic evaluation of hydrogelated liquid composition, subcutaneous administration to rats; assay type: in vivo, SD male rats; settings: 5 mg/kg
Procedure: A compound 1 (3.5 mg), Kolliphor (registered trademark) P188 (200 mg), Kolliphor (registered trademark) P407 (150 mg) and purified water (1.0 mL) were mixed using a vortex mixer to obtain a liquid composition. Then, the above liquid composition was stored at 4° C. overnight to obtain a hydrogel.
To evaluate the sustained-release ability of the hydrogelated liquid composition prepared in the above Example 11(a), the drug concentration in blood was measured over time after subcutaneous administration of the hydrogel or a compound 1 bulk powder to rats. Specifically, the hydrogel or the compound 1 bulk powder, at a dose of 5 mg/kg as an amount of the compound 1, was singly subcutaneously administered to SD male rats. After subcutaneous administration, blood was collected over time from the tail vein, and the blood was transferred into a micro test tube treated with heparin, and immediately cooled in ice. After cooling in ice, the blood was immediately centrifuged at 4° C. and 10,000 g for 10 minutes.
In Table 10, pharmacokinetic parameter was expressed as mean±standard error (n=3 to 6).

phospholipase A2 = settings: known from Patent Document 1; cited from earlier work
[3] = Inhibition of decomposition of compound 1-containing liquid composition with antioxidant added (60° C., 48 hours); assay type: physicochemical; settings: compound 1 250 μM, Tween 80 1.0 v/v %, antioxidant 250 μM, 60° C. for 48 hours (FIG. 6)
Procedure: In this test, an additive (antioxidant) that traps reactive oxygen species (ROS) was added to investigate the usefulness in the aqueous solution of the compound 1 for inhibition of decomposition under thermal conditions. A compound 1, Tween 80 and an antioxidant was metered, and Milli-Q water was added so that the concentration of the compound 1 and Tween 80 became 250 μM and 1.0 v/v %, respectively. Subsequently, four antioxidants were added so that each of the concentration thereof became 250 μM to obtain a compound 1-containing liquid composition with an antioxidant added. The content of D1 after the composition was heated at 60° C. for 48 hours was evaluated.

[4] = Solution stability of compound 1-containing liquid composition with VC added (heating to 60° C.); assay type: physicochemical; settings: VC 250, 500 or 2,500 μM, compound 1 250 μM, Tween 80 1.0 v/v %
Procedure: as §1
Effects of the amount of VC added on the solution stability of the compound 1 were investigated. Preparation was performed in the same manner as for the compound 1-containing liquid composition in Example 8 except that the concentration of VC was 250, 500 or 2,500 μM. The decomposition of the compound 1 and the production of D1 at the time of addition were evaluated (mean±standard error, n=3). After heating to 60° C., and the residual rate of the compound 1 and the content of D1 were evaluated over time, and the results are shown in FIG. 7. The residual rate (% by mass) of the compound 1 in the solution and the content (% by area) of D1 were calculated by the same calculation method as in Examples 3 to 8.

[5] = clinical use as additive; cited from earlier work
[6] = Heat: 60° C., 48 h, —: Undetected
[7] = Oxidation: 3.0% H2O2, room temperature, 48 h

With `CCS(=O)(=O)Nc1ncc(C(F)(F)F)cc1NC(=O)C1CCCCC1` [Compound 1, N-(2-ethylsulfonylamino-5-trifluoromethyl-3-pyridyl)cyclohexanecarboxamide-monosodium salt-monohydrate] the “Content of D3 after the forced decomposition test” value (“Content of D3” below) ([1]; Acid: 0.1N HCl, 60° C., 48 h) was 16.18 % by area, the “Other peaks (other than D1 and D3), maximum” value ([1]; Acid: 0.1N HCl, 60° C., 48 h) was ≤ 1.36 % by area and the “Residual rate of the compound 1 after the forced decomposition test” value ([1]; Acid: 0.1N HCl, 60° C., 48 h) was 77.1 % by mass. For the same compound, the “Content of D1 after the forced decomposition test” value ([1]; Acid: 0.1N HCl, 60° C., 48 h, —: Undetected) was “below the detection limit”, the “Content of D1 after the forced decomposition test” value ([1]; Base: 0.1N NaOH, 60° C., 48 h) was 17.62 % by area and the “Content of D3” value ([1]; Base: 0.1N NaOH, 60° C., 48 h) was 0.50 % by area. For the same compound, the “Other peaks (other than D1 and D3)” value ([1]; Base: 0.1N NaOH, 60° C., 48 h) was 0.11 % by area, the “Residual rate of the compound 1 after the forced decomposition test” value ([1]; Base: 0.1N NaOH, 60° C., 48 h) was 77.3 % by mass and the “Residual rate of the compound 1 after the forced decomposition test” value ([1]; Heat: 250 μM aqueous solution, 60° C., 48 h) was 88.7 % by mass. The “Other peaks (other than D1 and D3)” value ([1]; Heat: 60° C., 48 h) was “No other peaks were detected”, the “Content of D1 after the forced decomposition test” value [1, 6] was 8.08 % by area and the “Content of D3” value [1, 6] was “below the detection limit”. For the same compound, the “Residual rate of the compound 1 after the forced decomposition test” value ([1]; Light: pseudo-sunlight 250 W/m^2, room temperature, 2 h) was 97.4 % by mass, the “Content of D1 after the forced decomposition test” value [1, 7] was 0.30 % by area and the “Residual rate of the compound 1 after the forced decomposition test” value [1, 7] was 75.9 % by mass. The “Content of D3” value ([1]; Oxidation: 3.0% H2O2, room temperature, 48 h, —: Undetected) was “below the detection limit”, the “Peaks other than D1 and D3, maximum” value ([1]; Oxidation: hydrogen peroxide 3 v/v %, ordinary temperature) was ≤ 1.79 % by area and the “Photostability of the aqueous solution (decomposition products after irradiation)” value ([1]; pseudo-sunlight 250 W/m^2, 2 hours) was “No decomposition product was detected; also recorded: photostable”. For the same compound, the “Concentration in plasma at 12 hours after administration” value [2] was “below the detection limit”.

In the case of `CCS(=O)(=O)Nc1ncc(C(F)(F)F)cc1NC(=O)C1CCCCC1` [N-(2-ethylsulfonylamino-5-trifluoromethyl-3-pyridyl)cyclohexanecarboxamide], the “Inhibitory effect on phospholipase A2” value (phospholipase A2) is given as “has an inhibitory effect on phospholipase A2”.

In the case of `O=C1O[C@H]([C@@H](O)CO)C(O)=C1O` [VC, L-ascorbic acid], the “Inhibition of decomposition of compound 1 / production of D1 by added antioxidant” value [3] is reported as “remarkably inhibited the production of D1”, the “Residual rate of the compound 1 over time with VC added” value ([4]; 60° C. (FIG. 7A)) is reported as “increased depending on the concentration of VC added” and the “Content of D1 over time with VC added” value ([4]; 60° C. (FIG. 7B)) is reported as “decreased depending on the concentration of VC added”.

In the case of `N[C@@H](CS)C(=O)O` [cysteine, L-Cysteine], the “Inhibition of decomposition of compound 1 / production of D1 by added antioxidant” value [3] is listed as “remarkably inhibited the production of D1” and the “Maximum dose during intravenous injection” value [5] is listed as 8 mg.
